Data: publication PMC8419995, “In vitro and in vivo efficacy of thiacloprid against Echinococcus multilocularis” (Parasites & Vectors, 2021)
Like-named read-outs stand apart in the source and are kept apart here.

Assays:
[1] = test system: E. multilocularis protoscoleces; experiment: Protoscolex viability, 0.1% eosin exclusion test; format: cell-based, Echinococcus multilocularis
Protocol: Viable protoscoleces were cultured in Medium 199, supplemented with 1% penicillin–streptomycin, 50 μg/ml gentamicin and 4 mg/ml glucose according to a previously described method. […] PZQ was used as a positive control. The protoscoleces were cultured in an incubator at 37 °C and 5% CO2 for 7 days. Additionally, 0.1% eosin exclusion test was used to evaluate the viability of protoscoleces. To reduce the bias as much as possible, protoscolex viability was observed by two experimenters under double-blind conditions. Each experiment was conducted three times.

[2] = test system: Human foreskin fibroblasts (HFF); experiment: alamarBlue cytotoxicity assay, HFF; format: cell-based; settings: Fibroblast, 120 h, 5 days
Protocol: (§1) An alamarBlue assay was used to assess the toxicity of thiacloprid to confluent and pre-confluent mammalian cells in vitro [29]. Human foreskin fibroblasts (HFF, Procell) and rat hepatoma cells (RH, Procell) were seeded into 96-well cell culture plates in DMEM supplemented with 10% FBS and 1% penicillin–streptomycin at 37 °C and 5% CO2. For detecting the growth inhibitory effects of confluent cells, HFF and RH cells were seeded at 10,000 cells per well and 50,000 cells per well, respectively. After overnight culture, thiacloprid or PZQ was added and diluted in serial concentrations (0, 0.6, 1.2, 2.5, 5, 10, 20, 40, 80 and 160 μM). For detecting growth inhibitory effects on proliferating cells, cells were seeded at 1000 (HFF) and 5000 (RH) cells per well. Thiacloprid was added after 5 h of cell attachment. To measure the viability of the cells after treatment for 5 days, the alamarBlue assay was employed and viability calculated as described previously.

[3] = set-up: method as in PMID 21786385; settings: cited from earlier work
[4] = test system: E. multilocularis germinal cells; experiment: CellTiter-Glo viability assay on germinal cells; format: cell-based, Echinococcus multilocularis; settings: 5 days
Protocol: To evaluate the activity of thiacloprid against parasitic stem cells, germinal cells from in vitro metacestode vesicles were investigated as described by Spiliotis et al.. Briefly, 20 units of cells were distributed into a black 384-well plate. Different concentrations of thiacloprid or PZQ (0, 0.06, 1.2, 2.5, 5, 10, 20, 40, 80 and 160 μM) were added to the cells. After culture at 37 °C for 5 days under a humid nitrogen atmosphere, 25 μl CellTiter-Glo containing 1% Triton X-100 was added. The plates were incubated at room temperature in the dark for 15 min. After the total destruction of the cellular aggregates, luminescence was measured using an Infinite M200 PRO reader (Tecan), and 0 μM values were set to 100% viability. The IC50 values were calculated using an online IC50 calculator after logit-log transformation. Four independent replicates were conducted.

acetylcholinesterase = experiment: Acetylcholinesterase activity (Ellman) in extracts of protoscoleces, metacestodes and germinal cells; format: biochemical, Echinococcus multilocularis; settings: extract; thiacloprid 5 μM, 37 °C 10 min; BW284c51 positive control
Protocol: The effects of thiacloprid on the acetylcholinesterase activity of E. multilocularis protoscoleces, metacestodes and germinal cells were determined according to a previously described method. The protoscoleces, metacestode and germinal cells were washed twice with PBS and homogenized with an electric homogenizer in precooled PBS. Centrifugation of the homogenates was performed at 100,000×g for 30 min. The protein concentration of the supernatant was determined by the modified Lowry method according to the instructions, and the concentration was adjusted to 2 mg/ml. Thiacloprid (5 μM) was added to the extract and incubated at 37 °C for 10 min. The extract was supplemented with 0.1% DMSO as control. Subsequently, acetylcholinesterase activity was assessed according to Ellman’s procedure using a microplate with 260 µl of 0.1 M PBS buffer pH 8.0, 10 µl of 10 mM dithiobisnitrobenzoic acid solution, 2.5 µl of 75 mM substrate (acetylthiocholine iodide) and 25 µl of the sample treated with thiacloprid. The OD increment was measured at 412 nm using an Infinite M200 PRO reader (Tecan). Each experiment was conducted three times. BW284c51 (CAS number: 402-40-4, Sigma) was used as a positive control.

[5] = test system: E. multilocularis metacestodes; experiment: Morphology of in vitro treated metacestode vesicles (light microscope, SEM, TEM); format: cell-based, Echinococcus multilocularis; settings: 5 μM, 5 days
Protocol: The variations in the microstructure of the protoscoleces or metacestodes were observed under an electron microscope. In vitro-cultured E. multilocularis protoscoleces and metacestodes were treated with thiacloprid at 0 and 5 μM for 5 days at 37 °C and 5% CO2. They were washed twice in PBS and then fixed for 3 h with 2.5% glutaraldehyde (pH = 7.2); next, they underwent 2 h post-fixation in 2% OsO4 (SPI-CHEM, West Chester, PA, USA). Subsequently, the samples were washed in double-distilled water and treated with 1% uranyl acetate for 25 min. After the samples were washed again in double-distilled water, dehydration was conducted in ethanol at continuous gradients (30–50–70–80–90–95–100%) over a period of 10 min. For SEM analysis, the dehydrated samples were dipped into hexamethyldisiloxane and then air-dried in a fume hood. The sample was observed under a Hitachi SU8100 scanning electron microscope (Tokyo, Japan) after gold spraying. For TEM analysis, the dehydrated samples passed through a dehydrating agent, and an epoxy resin (SPI-CHEM) permeated and polymerized at 60 °C overnight. A 50-nm ultra-thin section was prepared and then loaded on a 300-mesh copper grid. It was stained with uranyl acetate and lead citrate (SPI-CHEM). The sample was observed under a Hitachi HT7700 transmission electron microscope. […]

[6] = test system: Reuber rat hepatoma (RH) cells; experiment: alamarBlue cytotoxicity assay, RH cells; format: cell-based; settings: 120 h, 5 days
Protocol: as §1

In the case of `N#C/N=C1\SCCN1Cc1ccc(Cl)nc1` [thiacloprid], the “Effect on protoscolex viability” value ([1]; 1.2 μM) is reported as “no significant effect”, the Dead protoscoleces ([1]; 5 μM for 4 days) is reported as 47.33 ± 4.04% and the IC50 ([2]; confluent cells, read-out: IC50 on confluent HFF) is reported as 68.7 ± 9.71 µM. The IC50 ([2]; pre-confluent cells, read-out: IC50 on pre-confluent HFF) was 64.8 ± 5.79 µM, the “Dose that can cause hepatocellular necrosis and hydropic degeneration” value [3] was 22.5 mg/kg and the viability at 2.5 µM ([4]; Echinococcus multilocularis, 120 h, 2.5 μM, read-out: Cell viability rate of germinal cells) was 58.3 ± 6.09%. The viability at 5 µM ([4]; Echinococcus multilocularis, 120 h, 5 μM, read-out: Cell viability rate of germinal cells) was 38.3 ± 4.47%, the IC50 ([4]; Echinococcus multilocularis, 120 h, CellTiter-Glo, read-out: IC50 against germinal cells) was 2.89 ± 0.34 µM and the “Inhibition rate of germinal cell viability” value ([4]; more than 10 μM) was “more than 80%”. For the same molecule, the “Acetylcholinesterase activity in protoscoleces, metacestode vesicles and germinal cells” value (acetylcholinesterase) was “suppressed”, the “Morphological alterations of metacestode vesicles under a light microscope” value [5] was “contraction and collapse” and the “TEM of metacestode vesicles” value [5] was “obvious ultrastructural damage”. The IC50 ([6]; confluent cells, read-out: IC50 on confluent RH cells) was 91.4 ± 1.33 µM and the IC50 ([6]; pre-confluent cells, read-out: IC50 on pre-confluent RH cells) was 74.3 ± 10.8 µM.
